Source: patent US10787450B2 (BRISTOL-MYERS SQUIBB COMPANY, priority 2016, dated 2020)

What follows are compounds tested against ROCK2 (Homo sapiens (Human), UniProt O75116) (assay: ROCK2 kinase inhibition assay (FITC peptide substrate, LABCHIP 3000 Reader)). Details: 5 μM ATP, 1.5 μM peptide substrate.
Type: biochemical
Procedure, shortened: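 Reaction in 20 mM HEPES pH 7.5, 20 mM MgCl2, 0.015% Brij-35, 4 mM DTT with 5 μM ATP and 1.5 μM FITC-AHA-AKRRRLSSLRA-OH peptide, started with Rho kinase, DMSO <2%. EDTA-stopped; phospho and non-phospho peptide separated by mobility shift. IC50 from dose-response curve fit.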

Sequence of ROCK2 (O75116 whole entry, species assumed): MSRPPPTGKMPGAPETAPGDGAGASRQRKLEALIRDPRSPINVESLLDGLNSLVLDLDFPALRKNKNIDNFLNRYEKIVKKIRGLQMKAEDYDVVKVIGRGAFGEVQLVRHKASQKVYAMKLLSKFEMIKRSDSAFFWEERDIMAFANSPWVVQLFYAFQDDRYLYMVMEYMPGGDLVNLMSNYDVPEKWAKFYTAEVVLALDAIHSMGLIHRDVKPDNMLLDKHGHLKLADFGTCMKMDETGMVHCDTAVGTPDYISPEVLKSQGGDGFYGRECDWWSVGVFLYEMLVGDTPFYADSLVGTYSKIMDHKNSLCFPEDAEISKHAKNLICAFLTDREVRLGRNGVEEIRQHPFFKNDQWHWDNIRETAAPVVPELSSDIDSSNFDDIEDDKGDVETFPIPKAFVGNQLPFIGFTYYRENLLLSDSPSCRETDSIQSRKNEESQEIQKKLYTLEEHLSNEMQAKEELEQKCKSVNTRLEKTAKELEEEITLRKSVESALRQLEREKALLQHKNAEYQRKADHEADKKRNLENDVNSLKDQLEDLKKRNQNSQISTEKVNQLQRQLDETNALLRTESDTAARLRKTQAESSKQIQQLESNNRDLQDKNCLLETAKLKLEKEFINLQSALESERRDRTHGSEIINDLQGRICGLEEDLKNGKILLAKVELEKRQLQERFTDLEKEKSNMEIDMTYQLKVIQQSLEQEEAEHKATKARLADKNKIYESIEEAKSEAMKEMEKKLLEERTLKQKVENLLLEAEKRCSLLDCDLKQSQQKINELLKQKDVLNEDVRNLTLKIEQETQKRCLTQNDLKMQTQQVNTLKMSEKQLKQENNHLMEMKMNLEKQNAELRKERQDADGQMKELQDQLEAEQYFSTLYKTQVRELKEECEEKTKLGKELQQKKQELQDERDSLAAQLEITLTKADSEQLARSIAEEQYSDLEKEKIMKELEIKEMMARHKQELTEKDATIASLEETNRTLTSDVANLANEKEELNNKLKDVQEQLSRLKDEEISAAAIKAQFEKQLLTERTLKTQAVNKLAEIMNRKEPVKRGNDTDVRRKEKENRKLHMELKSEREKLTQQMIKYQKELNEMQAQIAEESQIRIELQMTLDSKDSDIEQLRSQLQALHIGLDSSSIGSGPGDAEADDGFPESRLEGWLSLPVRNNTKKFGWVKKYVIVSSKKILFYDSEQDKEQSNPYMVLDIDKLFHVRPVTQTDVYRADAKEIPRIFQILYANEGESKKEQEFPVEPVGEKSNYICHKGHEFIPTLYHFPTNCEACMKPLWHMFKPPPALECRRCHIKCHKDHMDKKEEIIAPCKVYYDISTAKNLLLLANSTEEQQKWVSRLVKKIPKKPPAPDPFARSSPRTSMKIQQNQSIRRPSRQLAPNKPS

| IC50 [nM] | Structure (SMILES) |
| --- | --- |
| < 3 | COc1cccc(CN2C(=O)N(c3ccc(-c4cn[nH]c4)cc3)CC23CCN(CCC(C)C)CC3)c1 [Example 117, 3-(4-(1H-pyrazol-4-yl)phenyl)-8-isopentyl-1-(3-methoxybenzyl)-1,3,8-triazaspiro[4.5]decan-2-one] |
| < 3 | COc1cccc(CN2C(=O)N(c3ccc(-c4cn[nH]c4)cc3)CC23CCN(CC2CCCC2)CC3)c1 [Example 118, 3-(4-(1H-pyrazol-4-yl)phenyl)-8-(cyclopentylmethyl)-1-(3-methoxybenzyl)-1,3,8-triazaspiro[4.5]decan-2-one] |
| < 3 | COc1cccc(CN2C(=O)N(c3ccc(-c4cn[nH]c4)cc3)CC23CCN(CC(O)CO)CC3)c1 (centres unmarked) [Example 120, 3-(4-(1H-pyrazol-4-yl)phenyl)-8-(2,3-dihydroxypropyl)-1-(3-methoxybenzyl)-1,3,8-triazaspiro[4.5]decan-2-one] |
| < 3 | COc1cccc(CN2C(=O)N(c3ccc(-c4cn[nH]c4)cc3)CC23CCN(CCC(F)(F)F)CC3)c1 [Example 121, 3-(4-(1H-pyrazol-4-yl)phenyl)-1-(3-methoxybenzyl)-8-(3,3,3-trifluoropropyl)-1,3,8-triazaspiro[4.5]decan-2-one] |
| < 3 | CCN1CCC2(CC1)CN(c1ccc(-c3cn[nH]c3)cc1)C(=O)N2Cc1cccc(OC)c1 [Example 122, 3-(4-(1H-pyrazol-4-yl)phenyl)-8-ethyl-1-(3-methoxybenzyl)-1,3,8-triazaspiro[4.5]decan-2-one] |
| < 3 | CCC(CC)CN1CCC2(CC1)CN(c1ccc(-c3cn[nH]c3)cc1)C(=O)N2Cc1cccc(OC)c1 [Example 123, 3-(4-(1H-pyrazol-4-yl)phenyl)-8-(2-ethylbutyl)-1-(3-methoxybenzyl)-1,3,8-triazaspiro[4.5]decan-2-one] |
| < 3 | COc1cccc(CN2C(=O)N(c3ccc(-c4cn[nH]c4)cc3)CC23CCN(CC(C)C)CC3)c1 [Example 124, 3-(4-(1H-pyrazol-4-yl)phenyl)-8-isobutyl-1-(3-methoxybenzyl)-1,3,8-triazaspiro[4.5]decan-2-one] |
| 3 to 30 | CCc1nc(N2CC3(CCN(CCC(F)(F)F)CC3)N(Cc3cccc(F)c3C)C2=O)ccc1-c1cn[nH]c1 [Example 126, 3-(6-ethyl-5-(1H-pyrazol-4-yl)pyridin-2-yl)-1-(3-fluoro-2-methylbenzyl)-8-(3,3,3-trifluoropropyl)-1,3,8-triazaspiro[4.5]decan-2-one] |
| 3 to 30 | CCc1nc(N2CC3(CCN(CCC(F)(F)F)CC3)N(Cc3cccc(OC)c3)C2=O)ccc1-c1cn[nH]c1 [Example 127, 3-(6-ethyl-5-(1H-pyrazol-4-yl)pyridin-2-yl)-1-(3-methoxybenzyl)-8-(3,3,3-trifluoropropyl)-1,3,8-triazaspiro[4.5]decan-2-one] |
| 3 to 30 | CCc1nc(N2CC3(CCN(CCC(F)(F)F)CC3)N(Cc3cc(F)cc(OC)c3)C2=O)ccc1-c1cn[nH]c1 [Example 128, 3-(6-ethyl-5-(1H-pyrazol-4-yl)pyridin-2-yl)-1-(3-fluoro-5-methoxybenzyl)-8-(3,3,3-tnfluoropropyl)-1,3,8-triazaspiro[4.5]decan-2-one] |
| 3 to 30 | COc1cccc(CN2C(=O)N(c3ccc(-c4cn[nH]c4)cn3)CC23CCN(CCC(F)(F)F)CC3)c1 [Example 133, 3-(5-(1H-pyrazol-4-yl)pyridin-2-yl)-1-(3-methoxybenzyl)-8-(3,3,3-trifluoropropyl)-1,3,8-triazaspiro[4.5]decan-2-one] |
| 30 to 250 | COc1cccc(CN2C(=O)N(c3ncc(-c4cn[nH]c4)c(OC)n3)CC23CCN(CCC(F)(F)F)CC3)c1 [Example 134, 3-(4-methoxy-5-(1H-pyrazol-4-yl)pyrimidin-2-yl)-1-(3-methoxybenzyl)-8-(3,3,3-trifluoropropyl)-1,3,8-triazaspiro[4.5]decan-2-one] |
| < 3 | COc1cccc(CN2C(=O)N(c3ccc(-c4cn[nH]c4)c(OC)n3)CC23CCN(CCC(F)(F)F)CC3)c1 [Example 136, 3-(6-methoxy-5-(1H-pyrazol-4-yl)pyridin-2-yl)-1-(3-methoxybenzyl)-8-(3,3,3-trifluoropropyl)-1,3,8-triazaspiro[4.5]decan-2-one] |
| < 3 | COc1cccc(CN2C(=O)N(c3ccc(-c4cn[nH]c4)cc3)CC23CCN(CC(C)(C)O)CC3)c1 [Example 138, 3-(4-(1H-pyrazol-4-yl)phenyl)-8-(2-hydroxy-2-methylpropyl)-1-(3-methoxybenzyl)-1,3,8-triazaspiro[4.5]decan-2-one] |
| < 3 | COc1cccc(CN2C(=O)N(c3ccc(-c4cn[nH]c4)cc3)CC23CCN(CCO)CC3)c1 [Example 141, 3-(4-(1H-pyrazol-4-yl)phenyl)-8-(2-hydroxyethyl)-1-(3-methoxybenzyl)-1,3,8-triazaspiro[4.5]decan-2-one] |
| 3 to 30 | COCCN1CCC2(CC1)CN(c1ccc(-c3cn[nH]c3)cc1)C(=O)N2Cc1cccc(OC)c1 [Example 142, 3-(4-(1H-pyrazol-4-yl)phenyl)-1-(3-methoxybenzyl)-8-(2-methoxyethyl)-1,3,8-triazaspiro[4.5]decan-2-one] |
| < 3 | Cc1c(F)cccc1CN1C(=O)N(c2ccc(-c3cn[nH]c3)cc2)CC12CCN(CCO)CC2 [Example 143, 3-(4-(1H-pyrazol-4-yl)phenyl)-1-(3-fluoro-2-methylbenzyl)-8-(2-hydroxyethyl)-1,3,8-triazaspiro[4.5]decan-2-one] |
| < 3 | COc1cc(F)cc(CN2C(=O)N(c3ccc(-c4cn[nH]c4)cc3)CC23CCN(CCO)CC3)c1 [Example 144, 3-(4-(1H-pyrazol-4-yl)phenyl)-1-(3-fluoro-5-methoxybenzyl)-8-(2-hydroxyethyl)-1,3,8-triazaspiro[4.5]decan-2-one] |
| < 3 | COc1cccc(CN2C(=O)N(c3ccc(-c4cn[nH]c4)cc3)CC23CC[N+]([O-])(CCO)CC3)c1 (centres unmarked) [Example 145, 3-(4-(1H-pyrazol-4-yl)phenyl)-8-(2-hydroxyethyl)-1-(3-methoxybenzyl)-2-oxo-1,3,8-triazaspiro[4.5]decane 8-oxide] |
| < 3 | COc1cccc(CN2C(=O)N(c3ccc(-c4cn[nH]c4)c(OC)n3)CC23CCN(CCO)CC3)c1 [Example 146, 8-(2-hydroxyethyl)-3-(6-methoxy-5-(1H-pyrazol-4-yl)pyridin-2-yl)-1-(3-methoxybenzyl)-1,3,8-triazaspiro[4.5]decan-2-one] |
| < 3 | COc1cccc(CN2C(=O)N(c3ccc(-c4cn[nH]c4)c(OC)n3)CC23CCN(CC(C)O)CC3)c1 (centres unmarked) [Example 147, 8-(2-hydroxypropyl)-3-(6-methoxy-5-(1H-pyrazol-4-yl)pyridin-2-yl)-1-(3-methoxybenzyl)-1,3,8-triazaspiro[4.5]decan-2-one] |
| < 3 | COc1cccc(CN2C(=O)N(c3ccc(-c4cn[nH]c4)c(OC)n3)CC23CCN(CC(C)(C)O)CC3)c1 [Example 148, 8-(2-hydroxy-2-methylpropyl)-3-(6-methoxy-5-(1H-pyrazol-4-yl)pyridin-2-yl)-1-(3-methoxybenzyl)-1,3,8-triazaspiro[4.5]decan-2-one] |
| < 3 | CCc1nc(N2CC3(CCN(CCO)CC3)N(Cc3cccc(F)c3C)C2=O)ccc1-c1cn[nH]c1 [Example 149, 3-(6-ethyl-5-(1H-pyrazol-4-yl)pyridin-2-yl)-1-(3-fluoro-2-methylbenzyl)-8-(2-hydroxyethyl)-1,3,8-triazaspiro[4.5]decan-2-one] |
| < 3 | CCc1nc(N2CC3(CCN(CCO)CC3)N(Cc3cccc(OC)c3)C2=O)ccc1-c1cn[nH]c1 [Example 150, 3-(6-ethyl-5-(1H-pyrazol-4-yl)pyridin-2-yl)-8-(2-hydroxyethyl)-1-(3-methoxybenzyl)-1,3,8-triazaspiro[4.5]decan-2-one] |
| < 3 | CCc1nc(N2CC3(CCN(CC(C)O)CC3)N(Cc3cccc(OC)c3)C2=O)ccc1-c1cn[nH]c1 (centres unmarked) [Example 151, 3-(6-ethyl-5-(1H-pyrazol-4-yl)pyridin-2-yl)-8-(2-hydroxypropyl)-1-(3-methoxybenzyl)-1,3,8-triazaspiro[4.5]decan-2-one] |

| Structure (SMILES) | IC50 [nM] |
| --- | --- |
| COc1cccc(CN2C(=O)N(c3ccc(-c4cn[nH]c4)cc3)CC23CCN(CCc2ccccc2)CC3)c1 [Example 125, 3-(4-(1H-pyrazol-4-yl)phenyl)-1-(3-methoxybenzyl)-8-phenethyl-1,3,8-triazaspiro[4.5]decan-2-one] | 3 to 30 |
| CCc1nc(N2CC3(CCN(CC(F)F)CC3)N(Cc3cc(F)cc(OC)c3)C2=O)ccc1-c1cn[nH]c1 [Example 129, 8-(2,2-difluoroethyl)-3-(6-ethyl-5-(1H-pyrazol-4-yl)pyridin-2-yl)-1-(3-fluoro-5-methoxybenzyl)-1,3,8-triazaspiro[4.5]decan-2-one] | 3 to 30 |
| CCc1nc(N2CC3(CCN(CC(F)F)CC3)N(Cc3cccc(F)c3C)C2=O)ccc1-c1cn[nH]c1 [Example 130, 8-(2,2-difluoroethyl)-3-(6-ethyl-5-(1H-pyrazol-4-yl)pyridin-2-yl)-1-(3-fluoro-2-methylbenzyl)-1,3,8-triazaspiro[4.5]decan-2-one] | 3 to 30 |
| Cc1c(F)cccc1CN1C(=O)N(c2ccc(-c3cn[nH]c3)cc2)CC12CCN(CC(F)F)CC2 [Example 131, 3-(4-(1H-pyrazol-4-yl)phenyl)-8-(2,2-difluoroethyl)-1-(3-fluoro-2-methylbenzyl)-1,3,8-triazaspiro[4.5]decan-2-one] | < 3 |
| COc1cc(F)cc(CN2C(=O)N(c3ccc(-c4cn[nH]c4)cc3)CC23CCN(CC(F)F)CC3)c1 [Example 132, 3-(4-(1H-pyrazol-4-yl)phenyl)-8-(2,2-difluoroethyl)-1-(3-fluoro-5-methoxybenzyl)-1,3,8-triazaspiro[4.5]decan-2-one] | < 3 |
| COc1cccc(CN2C(=O)N(c3ccc(-c4cn[nH]c4)c(OC)n3)CC23CCN(CC(F)F)CC3)c1 [Example 135, 8-(2,2-difluoroethyl)-3-(6-methoxy-5-(1H-pyrazol-4-yl)pyridin-2-yl)-1-(3-methoxybenzyl)-1,3,8-triazaspiro[4.5]decan-2-one] | < 3 |
| COc1nc(N2CC3(CCN(CC(F)F)CC3)N(Cc3cccc(F)c3C)C2=O)ccc1-c1cn[nH]c1 [Example 137] | < 3 |
